Test results taken from patent US8877820B2, “Compositions comprising a retinoid and an NFkB-inhibitor and their methods of use” (Johnson & Johnson Consumer Companies, Inc., priority 2010, dated 2014).

System: NF-κB gene reporter in FB293 cells
Test: NFκB-INHIBITION TEST (luciferase gene reporter, TNFα-stimulated FB293 cells)
Type: cell-based, human
Settings: for Percent NF-kB Inhibition: FB293 cells, TNFα 100 ng/ml, 24 h; for NF-κB inhibition (in words): summary of Table 2
Description: The NFκB-INHIBITION TEST is conducted in the following manner. FB293 cells, a stable transfected human epithelial cell line containing the gene reporter for NF-κB are used. They may be obtained from, e.g., Panomics (Fremont, Calif.). FB293 are plated at a density of 5×10^4 cells/mL in a suitable medium, e.g., Dulbecco's modified Eagle's medium (DMEM) supplemented with 10% fetal bovine serum (Invitrogen, San Diego, Calif.). The FB293 cells are stimulated with 100 ng/mL of Tumor Necrosis Factor-α (TNFα, available from Sigma-Aldrich of St Louis, Mo.) in the presence of the test sample. Separately, a control sample is tested wherein no test sample is applied. Following a 24-hour incubation at 37° C. with 5% CO2, cells are lysed with 40 μl of reporter lysis buffer (Promega, Madison, Wis.). A 20-μl aliquot of the lysate is assayed using a luciferase assay kit (Promega) and counted for 10 s in a Lmax luminometer (Molecular Devices, Sunnyvale, Calif.) with the data represented as the relative light unit/second. Percent NFκB Inhibition of the test sample is calculated as: NFκB Inhibition=[1−(Lsample/Lcontrol)]*100 where Lsample is the luminescence of the sample and Lcontrol is the luminescence of the control.
The NFκB-INHIBITION TEST described above was performed on test samples of Bay 11-7082 (Sigma-Aldrich, St. Louis, Mo.), Tetrahydrocurcuminoids CG (Sabinsa Corporation, Piscataway, N.J.), as well as various concentrations of 4-hexylresorcinol. The results are shown in Table 2, in which NF-κB Gene Reporter Activation (Luminescence, L) is reported for the test samples and a control sample. Percent NF-κB Inhibition is also reported.

Cc1ccc(S(=O)(=O)/C=C/C#N)cc1 [Bay 11-7082, (E)-3-(4-methylphenylsulfonyl)-2-propenenitrile]
Percent NF-kB Inhibition (25 μM): 89.5% | NF-κB inhibition (in words): strong NF-κB inhibition

CCCCCCc1ccc(O)cc1O [4-Hexylresorcinol, 4-Hexyl resorcinol]
Percent NF-kB Inhibition (1 μg/ml): 1.9% | Percent NF-kB Inhibition (5 μg/ml): 50.9% | Percent NF-kB Inhibition (10 μg/ml): 72.9% | Percent NF-kB Inhibition (50 μg/ml): 91.4% | NF-κB inhibition (in words): strong NF-κB inhibition
